According to US8022034B2, “Combination therapy for the treatment of diabetes and conditions related thereto and for the treatment of conditions ameliorated by increasing a blood GLP-1 level” (Arena Pharmaceuticals, Inc., priority 2005, dated 2011):
pEC50: −log10 of the molar value.

What was measured:
blood glucose level = test: Oral glucose tolerance test (oGTT) in C57BL/6J mice (Example 14); type: in vivo; conditions: DPP-IV inhibitor alone, 1 mpk oral gavage, one hour before glucose bolus 2 gram/kg
Procedure: Oral glucose tolerance test (oGTT) in 7-8 week old C57BL/6J mice was carried out as described here. […] GPR119 agonist AR244061 was administered at 10 mpk or 30 mpk (milligram compound per kilogram of body weight). […] One hour after compound dosing, a glucose bolus (2 gram/kg) was delivered per orally, and tail blood samples were collected to measure blood glucose at 0, 30, 60 and 120 minutes. […] For each treatment group, glycemic excursion curve was graphed and is presented with blood glucose concentration given in mean values+/− standard error of the mean (SEM). Area Under Curve (AUC) of the glycemic excursion was calculated and reported as AUC (% of vehicle control).

[1] = tested on: elevated blood glucose level; test: Oral glucose tolerance test (oGTT) in mice (Example 1); type: in vivo
Procedure: Oral glucose tolerance test (oGTT) in mice was carried out as described here. Overnight fasted mice (n=6 mice per treatment) were administered via oral gavage with vehicle (PET), a GPR119 agonist (AR231453) at 1 mkg (milligram compound per kilogram of body weight), a DPP-IV inhibitor (AR247810) at 0.1 mkg, or a combination of the GPR119 agonist (1 mkg) and the DPP-IV inhibitor (0.1 mkg). Thirty minutes later, a glucose bolus (3 gram/kg) was then delivered per orally. Plasma glucose levels were determined at the indicated time points over a two hour period using blood (˜5 μl) collected from tail nick and a glucose meter. Glycemic excursion curve was graphed based on data from 6 mice and given in mean values+/−SEM (FIG. 1A).

GLUTag-Fla cells = test: GLP-1 secretion in GLUTag-Fla cells (GLP-1 Active ELISA); type: cell-based, mouse; conditions: various concentrations, serum free DMEM with 15 mM glucose, one hour at 37° C.
Procedure: GLUTag-Fla cells (see Example 12, supra) were plated in 24-well plates on day one in complete culture medium (DMEM/10% FBS). On day two the culture medium was replaced with a low glucose medium (DMEM/3 mM Glucose/10% FBS). On day three cells were washed twice with 1XPBS. The washed GLUTag-Fla cells were stimulated with GPR119 agonist (AR231453) at various concentrations or with forskolin (1 uM) as a positive control in serum free DMEM with 15 mM glucose for one hour at 37° C. and 5% CO2 in a tissue culture incubator. The supernatants were then collected and clarified by centrifugation at 500 g and 4° C. for 5 minutes. GLP-1 released into the supernatant was determined by ELISA using reagents purchased from LINCO Research Laboratory [Glucagon-Like Peptide-1 (Active) ELISA Kit. Cat. #EGLP-35K].

[2] = biological target: T1, GPR119 (GLUTag-Fla cells which express GPR119) (Mus musculus, UniProt Q7TQP3); test: Flash Plate adenylyl cyclase (cAMP) assay with GLUTag-Fla cell membranes; type: biochemical
T1 construct: endogenous in cells; host or cells: GLUTag-Fla (mouse enteroendocrine cell line), membrane preparation
T1 sequence (Q7TQP3 1-335): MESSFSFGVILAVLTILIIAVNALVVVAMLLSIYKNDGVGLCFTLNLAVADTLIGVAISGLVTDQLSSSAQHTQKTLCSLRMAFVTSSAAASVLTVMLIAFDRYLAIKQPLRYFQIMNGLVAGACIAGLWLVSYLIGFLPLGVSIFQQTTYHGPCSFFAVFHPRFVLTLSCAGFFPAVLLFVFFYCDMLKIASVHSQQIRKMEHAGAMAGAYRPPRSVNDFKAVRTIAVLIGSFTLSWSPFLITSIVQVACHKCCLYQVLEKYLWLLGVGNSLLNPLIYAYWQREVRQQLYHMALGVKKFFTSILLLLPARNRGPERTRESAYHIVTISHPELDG
Procedure: (§1) GLUTag is a mouse enteroendocrine cell line that secretes GLP-1 [Brubaker et al., Endocrinology (1998) 139:4108-4114]. The effect of GPR119 agonist on the level of intracellular cAMP in GLUTag (Fla subline) enteroendocrine cells was determined. The Fro subline of GLUTag was used as a negative control.
(§2) GluTag (GLUTag-Fla and GLUTag-Fro) cells were plated at […] in 15-cm tissue culture plate with regular growth medium. On the next day, cells were scraped off with cold Scraping Buffer (20 mM HEPES, 10 mM EDTA, pH7.4) and spinned down at 1000 rpm for 17 mins at 4° C. Cell pellets were washed with cold Membrane Wash Buffer (20 mM HEPES, 0.1 mM EDTA, pH7.4) and spun again as above. […] Protein concentration was determined by Bradford Assay. […]
(§3) The cyclase assay was done with a Flash Plate™ Adenylyl Cyclase kit (New England Nuclear; Cat. No. SMP004A). […] The cAMP generated in the wells can be quantitated by a direct competition for binding of radioactive cAMP tracer to the cAMP antibody.
(§4) Details of the cyclase assay as it was carried out are described here. cAMP standards and Detection Buffer (comprising 1 μCi of tracer [125I]cAMP (50 μl) to 11 ml Detection Buffer) were prepared and maintained in accordance with the manufacturer's instructions. […] Plates were incubated for an additional two hours, after which the samples were counted in a Wallac MicroBeta scintillation counter. […]

[3] = tested on: GLUTag-Fro cells which do not express GPR119; test: Flash Plate adenylyl cyclase (cAMP) assay with GLUTag-Fro cell membranes (negative control); type: biochemical, mouse
Procedure: as §1, §2, §3, §4

`N#C[C@@H]1CCCN1C(=O)CNC12CC3CC(CC(O)(C3)C1)C2` [LAF237, (1-[[3-hydroxy-1-adamantyl)amino]acetyl]-2-cyano-(S)-pyrrolidine] was tested, and the “Glycemic control in oGTT” value (blood glucose level) was “measurable glycemic control”.

In the case of `CC(C)c1noc(C2CCN(c3ncnc(Nc4ccc(S(C)(=O)=O)cc4F)c3[N+](=O)[O-])CC2)n1` [AR231453], the “AUC inhibition (effective therapeutic response)” value ([1]; compound alone at significantly higher doses (FIG. 1C, FIG. 1D)) was “around 40%”, the “GLP-1 secretion on stimulation” value (GLUTag-Fla cells) was “secrete GLP-1” and the “Elevation of the level of intracellular cAMP” value ([2]; GLUTag-Fla cells which express GPR119) was “elevate the level of intracellular cAMP”. For the same compound, the pEC50 ([2]; GLUTag-Fla membranes, eight doses from 10 uM to 1.27 nM, 60 min at room temperature, read-out: EC50 for elevation of cAMP in GLUTag cells) was about 8.37 and the “Elevation of the level of intracellular cAMP” value [3] was “not”.

`N[C@@H](CC(=O)N1CCn2c(nnc2C(F)(F)F)C1)Cc1cc(F)c(F)cc1F` [MK-0431, 3(R)-Amino-1-[3-(trifluoromethyl)-5,6,7,8-tetrahydro[1,2,4]triazolo[4,3-a]pyrazin-7-yl]-4-(2,4,5-trifluorophenyl)butan-1-one] was tested, and the “Glycemic control in oGTT” value (blood glucose level) was “measurable glycemic control”.

With “exendin-4: incretin mimetic [reference compound]” the “AUC inhibition of glycemic excursion” value ([1]; incretin mimetic in this mouse model, dose not given) was about 60%.
